# Data taken from patent US20210254056A1, “IDENTIFICATION AND TARGETED MODULATION OF GENE SIGNALING NETWORKS” (CAMP4 THERAPEUTICS CORPORATION, priority 2017, published 2021).
# Like-named read-outs stand apart in the source and are kept apart here.
# Test system: hepatocytes
# Test: RNA-seq of hepatocytes treated with Phase III failure compounds
# Settings: for significant modulation of expression of any of the genes analyzed: p≤0.05; for Number (#) of genes having significantly changed expression: Phase III failure compounds, significance: FPKM≥0.5, log 2(fold-change)≥1, q-value≥0.05 (so in the source)
# Protocol: RNA-seq was performed to determine the effects of the compounds on hepatocytes.
# Significance was determined by the criteria of FPKM≥0.5, a log 2(fold-change)≥1, and a […].
# [1] = RNA-seq of Table 36, FPKM≥0.5, log 2(fold-change)≥1, q-value≤0.05
structure (smiles),measurement,setting,value
C[C@H](Oc1ccc(S(C)(=O)=O)cc1C(=O)N1CCN(c2ncc(C(F)(F)F)cc2F)CC1)C(F)(F)F [Bitopertin],significant changes in gene expression,[1],not observed to cause any significant changes in gene expression
same,significant modulation of expression of any of the genes analyzed,"RNA-seq, hepatocytes",not observed to significantly modulate expression
CSCC[C@H](N)C(=O)N[C@@]1(C(=O)O)CS(=O)(=O)[C@H]2[C@H](C(=O)O)[C@H]21 [Pomaglumetad methionil],significant changes in gene expression,[1],not observed to cause any significant changes in gene expression
same,significant modulation of expression of any of the genes analyzed,"RNA-seq, hepatocytes",not observed to significantly modulate expression
Cc1ccc2c(=O)c3cccc(CC(=O)O)c3oc2c1C [DMXAA],significant changes in gene expression,[1],not observed to cause any significant changes in gene expression
same,significant modulation of expression of any of the genes analyzed,"RNA-seq, hepatocytes",not observed to significantly modulate expression
same,effect on disease gene expression,"RNA-seq, hepatocytes",no effect on any disease gene
CCCCC(C(=O)c1ccccc1)N1CCCC1 (stereo not shown) [a-PHP],significant changes in gene expression,,not observed to cause any significant changes in gene expression
same,significant modulation of expression of any of the genes analyzed,"RNA-seq, hepatocytes",not observed to significantly modulate expression
"C=CC(=O)Nc1cccc(Nc2nc(Nc3ccc(N4CCN(C(C)=O)CC4)cc3OC)ncc2C(F)(F)F)c1 [CO-1686 (Rociletinib), Rociletinib]",Number (#) of genes having significantly changed expression,"RNA-seq, hepatocytes",391
same,"B2M expression, RNA-seq result","gene B2M, hepatocytes",−0.08
same,"B9D2 expression, RNA-seq result","gene B9D2, hepatocytes",−0.29
same,"BAAT expression, RNA-seq result","gene BAAT, hepatocytes",0.22
same,"BBOX1 expression, RNA-seq result","gene BBOX1, hepatocytes",−0.45
same,"BBS10 expression, RNA-seq result","gene BBS10, hepatocytes",−0.28
same,"BCHE expression, RNA-seq result","gene BCHE, hepatocytes",−0.79
same,"BCKDHB expression, RNA-seq result","gene BCKDHB, hepatocytes",−0.38
same,"BCKDK expression, RNA-seq result","gene BCKDK, hepatocytes",−0.45
same,"BCO1 expression, RNA-seq result","gene BCO1, hepatocytes",−0.53
same,"BCR expression, RNA-seq result","gene BCR, hepatocytes",−0.26
same,"BLNK expression, RNA-seq result","gene BLNK, hepatocytes",0.75
same,"BLOC1S3 expression, RNA-seq result","gene BLOC1S3, hepatocytes",0.76
same,"BMPR1A expression, RNA-seq result","gene BMPR1A, hepatocytes",0.07
same,"BRAF expression, RNA-seq result","gene BRAF, hepatocytes",0.32
same,"BSCL2 expression, RNA-seq result","gene BSCL2, hepatocytes",−0.58
same,"BTD expression, RNA-seq result","gene BTD, hepatocytes",0.25
same,"C4A expression, RNA-seq result","gene C4A, hepatocytes",0.16
same,"C9 expression, RNA-seq result","gene C9, hepatocytes",−0.21
same,"C10orf10 expression, RNA-seq result","gene C10orf10, hepatocytes",0.81
same,"C10orf11 expression, RNA-seq result","gene C10orf11, hepatocytes",0.1
same,"C15orf41 expression, RNA-seq result","gene C15orf41, hepatocytes",0.03
same,"CA2 expression, RNA-seq result","gene CA2, hepatocytes",0.48
same,"CA5A expression, RNA-seq result","gene CA5A, hepatocytes",−0.02
same,"CA12 expression, RNA-seq result","gene CA12, hepatocytes",0.59
same,"CAV1 expression, RNA-seq result","gene CAV1, hepatocytes",−0.47
same,"CCND1 expression, RNA-seq result","gene CCND1, hepatocytes",−2.24
same,"CD46 expression, RNA-seq result","gene CD46, hepatocytes",−0.02
same,"CD81 expression, RNA-seq result","gene CD81, hepatocytes",0.02
same,"CD320 expression, RNA-seq result","gene CD320, hepatocytes",−0.58
same,"CDAN1 expression, RNA-seq result","gene CDAN1, hepatocytes",0.02
same,"CDH1 expression, RNA-seq result","gene CDH1, hepatocytes",−0.25
same,"CEP19 expression, RNA-seq result","gene CEP19, hepatocytes",−0.43
same,"CEP83 expression, RNA-seq result","gene CEP83, hepatocytes",−0.13
same,"CEP164 expression, RNA-seq result","gene CEP164, hepatocytes",−0.32
same,"CEP290 expression, RNA-seq result","gene CEP290, hepatocytes",−0.17
same,"CFB expression, RNA-seq result","gene CFB, hepatocytes",0.17
same,"CFHR2 expression, RNA-seq result","gene CFHR2, hepatocytes",−0.16
same,"CHRM3 expression, RNA-seq result","gene CHRM3, hepatocytes",−0.14
same,"CIDEC expression, RNA-seq result","gene CIDEC, hepatocytes",0.24
same,"CLDN1 expression, RNA-seq result","gene CLDN1, hepatocytes",−0.71
same,"COG1 expression, RNA-seq result","gene COG1, hepatocytes",−0.28
C1=C/COCc2cc(ccc2OCCN2CCCC2)Nc2nccc(n2)-c2cccc(c2)COC/1 [Pacritinib],Number (#) of genes having significantly changed expression,"RNA-seq, hepatocytes",4114
